Here are results for 14 compounds from patent US11091478B2 (Fochon Pharmaceuticals, Ltd., priority 2017, dated 2021).

Molecules are shown by their SMILES. Read-outs that look alike come from different tables or passages of the source.

One experiment has as its system DOHH2 cells. Nature of the experiment: Cell proliferation assay (MTS), DOHH2 cells, 120 h. The class given is cell-based. In a few lines: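 Proliferation was scored by MTS (2 h, then SDS stop, A490 with 650 nm reference) and IC50 derived. Compound ran at nine final concentrations from 1.5 to 10000 nM. DOHH2 were incubated 120 h and RS4;11 72 h, both plated at 5000 cells/well in RPMI-1640 plus 10% FBS.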

In the next experiment the test system is RS4;11 cells. Nature of the experiment: Cell proliferation assay (MTS), RS4;11 cells, 72 h. To be noted: Homo sapiens, RS4-11, 72 h. The class given is cell-based. From the text:
Cell Proliferation Assays
MTS testing kit was purchased from Promega. The RPMI-1640, Fetal bovine serum and Penicillin-Streptomycin were purchased from Gibco. Dimethyl sulfoxide (DMSO) was purchased from Sigma.
To investigate whether a compound is able to inhibit the activity of BCL-2 in cells, a mechanism-based assay using DOHH2 (DSMZ No.® ACC 47) and RS4;11 (ATCC® CRL-1873™) cell was developed. In this assay, inhibition of Bcl-2 was detected by the inhibition of DOHH2 cells proliferation. DOHH2 cells were cultured in culture flasks to 40-80% confluence in RPMI-1640 plus 10% fetal bovine serum. Cells were collected and plated onto 96-well plates at desired cell density (5000 cells/well). Plates were incubated overnight at 37° C., with 5% CO2 to adhere. Compounds were added to the plates, and the final compound concentrations were 10000, 3333, 1111, […], 124, 41, 14, 4.6 and 1.5 nM. Plates plated with DOHH2 or RS4;11 cells were placed at 37° C., with 5% CO2 for 120 h (DOHH2) or 72 h (RS4;11) respectively. 20 μl MTS/100 μl medium mixture solution were added to each well and incubate the plates for exactly 2 hours. The reaction was stopped by adding 25 μl 10% SDS per well. Measure absorbance at 490 nm and 650 nm (reference wavelength). IC50 was calculated using GraphPad Prism 5.0.
Select compounds prepared as described above were assayed according to the biological procedures described herein.

As a reminder, the IC50 is the concentration needed to halve the response being measured. Regarding `CC1(C)CCC(CN2CCN(c3ccc(C(=O)NS(=O)(=O)c4cc5c(c([N+](=O)[O-])c4)N[C@H](c4ccc(F)cc4)CO5)c(Oc4cnc5[nH]ccc5c4)c3)CC2)=C(c2ccc(Cl)cc2)C1` [Example 2-166, (R)-2-((1H-pyrrolo[2,3-b]pyridin-5-yl)oxy)-4-(4-((4′-chloro-5,5-dimethyl-3,4,5,6-tetra-hydro-[1,1′-biphenyl]-2-yl)methyl)piperazin-1-yl)-N-((3-(4-fluorophenyl)-5-nitro-3,4-dihydro-2H-benzo[b][1,4]oxazin-7-yl)sulfo-nyl)benzamide], the IC50 with DOHH2 cells (Homo sapiens, DOHH-2, 120 h) worked out at 0.3 µM; in the experiment with RS4;11 cells, 0.082 µM.
Taken in the same sequence, the figures for `C[C@@H]1CN(C[C@@H]2COc3cc(S(=O)(=O)NC(=O)c4ccc(N5CCN(CC6=C(c7ccc(Cl)cc7)CC(C)(C)CC6)CC5)cc4Oc4cnc5[nH]ccc5c4)cc([N+](=O)[O-])c3N2)CCO1` [Example 2-23, 2-((1H-pyrrolo[2,3-b]pyridin-5-yl)oxy)-4-(4-((4′-chloro-5,5-dimethyl-3,4,5,6-tetra-hydro-[1,1′-biphenyl]-2-yl)methyl)piperazin-1-yl)-N-(((R)-3-(((R)-2-methylmorpholino)methyl)-5-nitro-3,4-dihydro-2H-benzo[b][1,4]oxazin-7-yl)sulfonyl)benzamide] were 0.033 µM and 0.007 µM.
As for `CC1(C)CCC(CN2CCN(c3ccc(C(=O)NS(=O)(=O)c4cc5c(c([N+](=O)[O-])c4)N[C@H](C4CCC(O)CC4)CO5)c(Oc4cnc5[nH]ccc5c4)c3)CC2)=C(c2ccc(Cl)cc2)C1` (single isomer, unassigned) [Example 2-240A], the IC50 stood at 0.005 µM in the experiment with DOHH2 cells and 0.001 µM with RS4;11 cells.
Take `CN(C)C[C@@H]1CSc2cc(S(=O)(=O)NC(=O)c3ccc(N4CCN(CC5=C(c6ccc(Cl)cc6)CC(C)(C)CC5)CC4)cc3Oc3cnc4[nH]ccc4c3)cc([N+](=O)[O-])c2N1` [Example 3-4, (R)-2-((1H-pyrrolo[2,3-b]pyridin-5-yl)oxy)-4-(4-((4′-chloro-5,5-dimethyl-3,4,5,6-tetra-hydro-[1,1′-biphenyl]-2-yl)methyl)piperazin-1-yl)-N-((3-((dimethylamino)methyl)-5-nitro-3,4-dihydro-2H-benzo[b][1,4]thiazin-7-yl)sulfonyl)benzamide]: the IC50 was found to be 0.041 µM in the experiment on DOHH2 cells (Homo sapiens, DOHH-2, 120 h) and 0.012 µM in the experiment with RS4;11 cells.
Taken in the same sequence, the figures for `CC1(C)CCC(CN2CCN(c3ccc(C(=O)NS(=O)(=O)c4cc5c(c([N+](=O)[O-])c4)N[C@@H](CCN4CCOCC4)C5)c(Oc4cnc5[nH]ccc5c4)c3)CC2)=C(c2ccc(Cl)cc2)C1` [Example 1-16, (R)-2-((1H-pyrrolo[2,3-b]pyridin-5-yl)oxy)-4-(4-((4′-chloro-5,5-dimethyl-3,4,5,6-tetra-hydro-[1,1′-biphenyl]-2-yl)methyl)piperazin-1-yl)-N-((2-(2-morpholinoethyl)-7-nitro-indolin-5-yl)sulfonyl)benzamide] were 0.073 µM and 0.016 µM.
Taken in the same sequence, the figures for `CC1(C)CCC(CN2CCN(c3ccc(C(=O)NS(=O)(=O)c4cc5c(c([N+](=O)[O-])c4)NC(C4CCC(O)CC4)CO5)c(Oc4cnc5[nH]ccc5c4)c3)CC2)=C(c2ccc(Cl)cc2)C1` (stereo not shown) [Example 2-188, 2-((1H-pyrrolo[2,3-b]pyridin-5-yl)oxy)-4-(4-((4′-chloro-5,5-dimethyl-3,4,5,6-tetrahydro-[1,1′-biphenyl]-2-yl)methyl)piperazin-1-yl)-N-((3-(4-hydroxycyclohexyl)-5-nitro-3,4-dihydro-2H-benzo[b][1,4]oxazin-7-yl)sulfonyl)benzamide] were 0.019 µM and 0.001 µM.
Taken in the same sequence, the figures for `COC(=O)N1CCC([C@@H]2COc3cc(S(=O)(=O)NC(=O)c4ccc(N5CCN(CC6=C(c7ccc(Cl)cc7)CC(C)(C)CC6)CC5)cc4Oc4cnc5[nH]ccc5c4)cc([N+](=O)[O-])c3N2)CC1` [Example 2-223, methyl (R)-4-(7-(N-(2-((1H-pyrrolo[2,3-b]pyridin-5-yl)oxy)-4-(4-((4′-chloro-5,5-dimethyl-3,4,5,6-tetrahydro-[1,1′-biphenyl]-2-yl)methyl)piperazin-1-yl)benzoyl)sulfamoyl)-5-nitro-3,4-dihydro-2H-benzo[b][1,4]oxazin-3-yl) piperidine-1-carboxylate] were 0.011 µM and 0.001 µM.
Consider `CN1CCC(C[C@@H]2COc3cc(S(=O)(=O)NC(=O)c4ccc(N5CCN(CC6=C(c7ccc(Cl)cc7)CC(C)(C)CC6)CC5)cc4Oc4cnc5[nH]ccc5c4)cc([N+](=O)[O-])c3N2)CC1` [Example 2-201, (R)-2-((1H-pyrrolo[2,3-b]pyridin-5-yl)oxy)-4-(4-((4′-chloro-5,5-dimethyl-3,4,5,6-tetra-hydro-[1,1′-biphenyl]-2-yl)methyl)piperazin-1-yl)-N-((3-((1-methylpiperidin-4-yl)meth-yl)-5-nitro-3,4-dihydro-2H-benzo[b][1,4]ox-azin-7-yl)sulfonyl)benzamide], for which the IC50 with DOHH2 cells (Homo sapiens, DOHH-2, 120 h) worked out at 0.145 µM; in the experiment with RS4;11 cells, 0.022 µM.
Taken in the same sequence, the figures for `CC1(C)CCC(c2ccc(Cl)cc2)=C(CN2CCN(c3ccc(C(=O)NS(=O)(=O)c4cc5c(c([N+](=O)[O-])c4)N[C@H](C4CCOCC4)CO5)c(Oc4cnc5[nH]ccc5c4)c3)CC2)C1` [Example 2-213, (R)-2-((1H-pyrrolo[2,3-b]pyridin-5-yl)oxy)-4-(4-((4′-chloro-4,4-dimethyl-3,4,5,6-tetra-hydro-[1,1′-biphenyl]-2-yl)methyl)piperazin-1-yl)-N-((5-nitro-3-(tetrahydro-2H-pyran-4-yl)-3,4-dihydro-2H-benzo[b][1,4]oxazin-7-yl)sulfonyl)benzamide] were 0.041 µM and 0.008 µM.
For `CN1CCN(CC[C@H]2COc3cc(S(=O)(=O)NC(=O)c4ccc(N5CCN(CC6=C(c7ccc(Cl)cc7)CC(C)(C)CC6)CC5)cc4Oc4cnc5[nH]ccc5c4)cc([N+](=O)[O-])c3N2)CC1` [Example 2-9, (S)-2-((1H-pyrrolo[2,3-b]pyridin-5-yl)oxy)-4-(4-((4′-chloro-5,5-dimethyl-3,4,5,6-tetra-hydro-[1,1′-biphenyl]-2-yl)methyl)piperazin-1-yl)-N-((3-(2-(4-methylpiperazin-1-yl)eth-yl)-5-nitro-3,4-dihydro-2H-benzo[b][1,4]oxazin-7-yl)sulfonyl)benzamide], in that order: 0.033 µM and 0.01 µM.
Regarding `CC1(C)CCC(CN2CCN(c3ccc(C(=O)NS(=O)(=O)c4cc5c(c([N+](=O)[O-])c4)N[C@@H](CNC(=O)C4CCOCC4)CO5)c(Oc4cnc5[nH]ccc5c4)c3)CC2)=C(c2ccc(Cl)cc2)C1` [Example 2-54, (S)-N-((7-(N-(2-((1H-pyrrolo[2,3-b]pyridin-5-yl)oxy)-4-(4-((4′-chloro-5,5-dimethyl-3,4,5,6-tetrahydro-[1,1′-biphenyl]-2-yl)methyl)piperazin-1-yl)benzoyl)sulfamoyl)-5-nitro-3,4-dihydro-2H-benzo[b][1,4]oxa-zin-3-yl)meth-yl)tetrahydro-2H-pyran-4-carboxamide], the IC50 in the experiment with DOHH2 cells (Homo sapiens, DOHH-2, 120 h) came to 0.134 µM; in the experiment on RS4;11 cells, 0.061 µM.
Turning to `CC1(C)CCC(CN2CCN(c3ccc(C(=O)NS(=O)(=O)c4cc5c(c([N+](=O)[O-])c4)N[C@@H](Cc4cccnc4)CO5)c(Oc4cnc5[nH]ccc5c4)c3)CC2)=C(c2ccc(Cl)cc2)C1` [Example 2-163, (S)-2-((1H-pyrrolo[2,3-b]pyridin-5-yl)oxy)-4-(4-((4′-chloro-5,5-dimethyl-3,4,5,6-tetra-hydro-[1,1′-biphenyl]-2-yl)methyl)piperazin-1-yl)-N-((5-nitro-3-(pyridin-3-ylmethyl)-3,4-dihydro-2H-benzo[b][1,4]oxazin-7-yl)sulfonyl)benzamide], the IC50 with DOHH2 cells (Homo sapiens, DOHH-2, 120 h) came to 0.053 µM; in the experiment with RS4;11 cells, 0.029 µM.
Taken in the same sequence, the figures for `CN1CCN(C[C@@H]2CNc3cc(S(=O)(=O)NC(=O)c4ccc(N5CCN(CC6=C(c7ccc(Cl)cc7)CC(C)(C)CC6)CC5)cc4Oc4cnc5[nH]ccc5c4)cc([N+](=O)[O-])c3N2)CC1` [Example 4-1, (S)-2-((1H-pyrrolo[2,3-b]pyridin-5-yl)oxy)-4-(4-((4′-chloro-5,5-dimethyl-3,4,5,6-tetrahydro-[1,1′-biphenyl]-2-yl)methyl)piperazin-1-yl)-N-((2-((4-methylpiperazin-1-yl)methyl)-8-nitro-1,2,3,4-tetrahydroquinoxalin-6-yl)sulfonyl)benzamide] were 0.013 µM and 0.001 µM.
Taken in the same sequence, the figures for `C[C@H]1CN(C[C@H]2COc3cc(S(=O)(=O)NC(=O)c4ccc(N5CCN(CC6=C(c7ccc(Cl)cc7)CC(C)(C)CC6)CC5)cc4Oc4cnc5[nH]ccc5c4)cc([N+](=O)[O-])c3N2)CCN1C` [Example 2-27, 2-((1H-pyrrolo[2,3-b]pyridin-5-yl)oxy)-4-(4-((4′-chloro-5,5-dimethyl-3,4,5,6-tetra-hydro-[1,1′-biphenyl]-2-yl)methyl)piperazin-1-yl)-N-(((S)-3-(((S)-3,4-dimethylpiperazin-1-yl)methyl)-5-nitro-3,4-dihydro-2H-benzo [b][1,4]oxazin-7-yl)sulfonyl)benzamide] were 0.012 µM and 0.001 µM.
